For 14 molecules, T/C results are on record in PubChem BioAssay AID328 (DTP/NCI, 2004).

Where “and” joins values, the source holds several entries; their conditions need not be identical. Equal values may be shown once. Toxic doses and inconclusive results are not listed.

The subject of the assay is BDF1 mice, P388 leukemia ip, median survival T/C. Description: NCI In Vivo Anticancer Drug Screen. Data for tumor model P388 Leukemia (intraperitoneal) in B6D2F1 (BDF1) mice. As to conditions: endpoint: median survival time, higher = longer survival. In short, it runs like this:
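Each value expresses how treatment altered survival: treated-mouse outcome over vehicle-mouse outcome, both groups bearing the transplanted tumour.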

[1] abbreviates: dose: 50.0 mg/kg/injection, schedule: Q01DX009 (ip), vehicle: saline with Tween-80.
The mark [2] stands for this setting: dose: 37.5 mg/kg/injection, schedule: Q04DX003 (ip), vehicle: Klucel (hydroxypropylcellulose) (HPC).
Where [3] appears, read: dose: 75.0 mg/kg/injection, schedule: Q04DX003 (ip), vehicle: Klucel (hydroxypropylcellulose) (HPC).
Where [4] appears, read: dose: 150.0 mg/kg/injection, schedule: Q04DX003 (ip), vehicle: Klucel (hydroxypropylcellulose) (HPC).
[5] abbreviates: dose: 100.0 mg/kg/injection, schedule: Q04DX003 (ip), vehicle: Klucel (hydroxypropylcellulose) (HPC).
Setting [6] is: dose: 150.0 mg/kg/injection, schedule: Q01DX009 (ip), vehicle: Klucel (hydroxypropylcellulose) (HPC).
The mark [7] stands for this setting: dose: 25.0 mg/kg/injection, schedule: Q01DX009 (ip), vehicle: saline.
Where [8] appears, read: dose: 50.0 mg/kg/injection, schedule: Q01DX009 (ip), vehicle: saline.
Where [9] appears, read: dose: 100.0 mg/kg/injection, schedule: Q01DX009 (ip), vehicle: saline.

Turning to `c1ccc2c(NCCCCCCCCNc3c4ccccc4nc4ccccc34)c3ccccc3nc2c1`, the T/C is 112 % of control (dose: 2.5 mg/kg/injection, schedule: Q01DX009 (ip), vehicle: Klucel (hydroxypropylcellulose) (HPC)) and 100 % of control (dose: 20.0 mg/kg/injection, schedule: Q01DX009 (ip), vehicle: Klucel (hydroxypropylcellulose) (HPC)).

In the case of `CN(C=C(C#N)C#N)c1ccccc1`, the T/C under setting [1] is 105 % of control.

On to `O=C(Nc1cccc2ccccc12)ON1C(=O)c2ccccc2C1=O`, for which the T/C is 110 % of control (dose: 50.0 mg/kg/injection, schedule: Q01DX005 (ip), vehicle: saline with Tween-80); 115 % of control (dose: 100.0 mg/kg/injection, schedule: Q01DX005 (ip), vehicle: saline with Tween-80); 120 % of control (dose: 200.0 mg/kg/injection, schedule: Q01DX005 (ip), vehicle: saline with Tween-80).

As to `O=[N+]([O-])/C=C/c1ccc2ccccc2n1`, the T/C reads like this: (dose: 1.25 mg/kg/injection, schedule: Q01DX009 (ip), vehicle: saline with Tween-80) 103 % of control; (dose: 2.5 mg/kg/injection, schedule: Q01DX009 (ip), vehicle: saline with Tween-80) 92 % of control and 94 % of control; (dose: 5.0 mg/kg/injection, schedule: Q01DX009 (ip), vehicle: saline with Tween-80) 94 % of control and 110 % of control; (dose: 10.0 mg/kg/injection, schedule: Q01DX009 (ip), vehicle: saline with Tween-80) 94 % of control and 115 % of control; (dose: 12.5 mg/kg/injection, schedule: Q04DX003 (ip), vehicle: saline with Tween-80) 111 % of control; (dose: 20.0 mg/kg/injection, schedule: Q01DX009 (ip), vehicle: saline with Tween-80) 94 % of control. For the setting “dose: 25.0 mg/kg/injection, schedule: Q04DX003 (ip), vehicle: saline with Tween-80”, the T/C is 102 % of control.

In the case of `CN1CC=Nc2c1nc(N)[nH]c2=O`, the T/C was 109 % of control (dose: 12.5 mg/kg/injection, schedule: Q01DX009 (ip), vehicle: saline with Tween-80); 107 % of control (dose: 25.0 mg/kg/injection, schedule: Q01DX009 (ip), vehicle: saline with Tween-80); 102 % of control under setting [1].

With `O=NN(CCCl)C(=O)NC12CC3CC(CC(C3)C1)C2`, the T/C was 100 % of control (dose: 5.0 mg/kg/injection, schedule: Q04DX003 (ip), vehicle: Klucel (hydroxypropylcellulose) (HPC)); 95 % of control (dose: 15.0 mg/kg/injection, schedule: Q04DX003 (ip), vehicle: Klucel (hydroxypropylcellulose) (HPC)); 104 % of control (dose: 30.0 mg/kg/injection, schedule: Q04DX003 (ip), vehicle: Klucel (hydroxypropylcellulose) (HPC)); 166 % of control under setting [2]; 250 % of control under setting [3]; 285 % of control (dose: 100.0 mg/kg/injection, schedule: Q04DX003 (ip), vehicle: saline with Tween-80). Moreover, the T/C was 250 % of control under setting [4]; 103 % of control (dose: 175.0 mg/kg/injection, schedule: Q04DX003 (ip), vehicle: saline); 285 % of control (dose: 200.0 mg/kg/injection, schedule: Q04DX003 (ip), vehicle: saline with Tween-80); 285 % of control (dose: 400.0 mg/kg/injection, schedule: Q04DX003 (ip), vehicle: saline with Tween-80).

Regarding `CC12C3C(=O)NC45CCCC41C5(c1ccccc1)C32c1ccccc1` (configuration not stated), the T/C is 95 % of control (dose: 100.0 mg/kg/injection, schedule: Q01DX001 (ip), vehicle: saline sonified); 95 % of control (dose: 200.0 mg/kg/injection, schedule: Q01DX001 (ip), vehicle: saline sonified); 86 % of control (dose: 400.0 mg/kg/injection, schedule: Q01DX001 (ip), vehicle: saline sonified).

Consider `CCCCn1cnc2c(SC)nc(N)nc21`, for which the T/C runs as follows: (dose: 66.0 mg/kg/injection, schedule: Q01DX009 (ip), vehicle: Klucel (hydroxypropylcellulose) (HPC)) 95 % of control; (dose: 100.0 mg/kg/injection, schedule: Q01DX009 (ip), vehicle: Klucel (hydroxypropylcellulose) (HPC)) 104 % of control; under setting [5], 100 % of control; under setting [6], 100 % of control; (dose: 200.0 mg/kg/injection, schedule: Q04DX003 (ip), vehicle: Klucel (hydroxypropylcellulose) (HPC)) 90 % of control; (dose: 400.0 mg/kg/injection, schedule: Q04DX003 (ip), vehicle: Klucel (hydroxypropylcellulose) (HPC)) 90 % of control.

For `CC(CCC(=O)NC12CC3CC(CC(C3)C1)C2)C1CCC2C3C(OC=O)CC4CC(OC=O)CCC4(C)C3CC(OC=O)C12C` (configuration not stated), the T/C was 98 % of control (dose: 12.5 mg/kg/injection, schedule: Q04DX002 (ip), vehicle: saline with Tween-80); 100 % of control (dose: 25.0 mg/kg/injection, schedule: Q04DX002 (ip), vehicle: saline with Tween-80); 100 % of control (dose: 50.0 mg/kg/injection, schedule: Q04DX002 (ip), vehicle: saline with Tween-80); 88 % of control (dose: 200.0 mg/kg/injection, schedule: Q04DX002 (ip), vehicle: saline with Tween-80); 98 % of control (dose: 400.0 mg/kg/injection, schedule: Q04DX002 (ip), vehicle: saline with Tween-80).

As for `Cc1ccc(S(=O)(=O)OC2CCCCCCCCCCC2=O)cc1` (configuration not stated), the T/C reads like this: (dose: 25.0 mg/kg/injection, schedule: Q04DX003 (ip), vehicle: other) 99 % of control; (dose: 50.0 mg/kg/injection, schedule: Q04DX003 (ip), vehicle: other) 96 % of control; (dose: 100.0 mg/kg/injection, schedule: Q04DX003 (ip), vehicle: other) 95 % of control.

With `CC1(C)N=C(N)N=C(N)N1c1cccc(CN)c1`, the T/C reads like this: (dose: 12.5 mg/kg/injection, schedule: Q04DX003 (ip), vehicle: saline) 90 % of control; under setting [7], 100 % of control; (dose: 25.0 mg/kg/injection, schedule: Q04DX003 (ip), vehicle: saline) 100 % of control; under setting [8], 95 % of control and 105 % of control; (dose: 50.0 mg/kg/injection, schedule: Q04DX003 (ip), vehicle: saline) 100 % of control; under setting [9], 90 % of control and 110 % of control. The T/C (dose: 100.0 mg/kg/injection, schedule: Q04DX003 (ip), vehicle: saline) was 104 % of control.

Consider `Cc1cccc(CCl)c1`, for which the T/C is, setting by setting: (dose: 100.0 mg/kg/injection, schedule: Q04DX003 (ip), vehicle: saline sonified) 104 % of control; (dose: 200.0 mg/kg/injection, schedule: Q04DX003 (ip), vehicle: saline sonified) 109 % of control; (dose: 400.0 mg/kg/injection, schedule: Q04DX003 (ip), vehicle: saline sonified) 100 % of control.

For the molecule `O=c1[nH]nnc2ccccc12`, the T/C under setting [7] was 95 % of control; the T/C (dose: 25.0 mg/kg/injection, schedule: Q04DX003 (ip), vehicle: Klucel (hydroxypropylcellulose) (HPC)) is 100 % of control; the T/C under setting [2] was 100 % of control; the T/C under setting [8] is 95 % of control; the T/C (dose: 50.0 mg/kg/injection, schedule: Q04DX003 (ip), vehicle: Klucel (hydroxypropylcellulose) (HPC)) was 104 % of control; the T/C under setting [3] was 95 % of control. Moreover, the T/C was 90 % of control under setting [9], 100 % of control under setting [5], 100 % of control under setting [6] and 109 % of control under setting [4].

In the case of `COc1cccc2c(=O)cc(C)[nH]c12`, the T/C runs as follows: (dose: 25.0 mg/kg/injection, schedule: Q01DX009 (ip), vehicle: water) 107 % of control; (dose: 50.0 mg/kg/injection, schedule: Q01DX009 (ip), vehicle: water) 92 % of control; (dose: 50.0 mg/kg/injection, schedule: Q04DX003 (ip), vehicle: water) 103 % of control; (dose: 100.0 mg/kg/injection, schedule: Q01DX009 (ip), vehicle: water) 101 % of control; (dose: 100.0 mg/kg/injection, schedule: Q04DX003 (ip), vehicle: water) 97 % of control; (dose: 200.0 mg/kg/injection, schedule: Q01DX009 (ip), vehicle: water) 91 % of control. The T/C is 106 % of control (dose: 200.0 mg/kg/injection, schedule: Q04DX003 (ip), vehicle: water); 90 % of control (dose: 400.0 mg/kg/injection, schedule: Q01DX009 (ip), vehicle: water); 98 % of control (dose: 400.0 mg/kg/injection, schedule: Q04DX003 (ip), vehicle: water).
